Patent publication US12415771B2, “Compounds for the treatment of neuromuscular disorders” (NMD PHARMA A/S, priority 2019, dated 2025)
Read-outs that look alike come from different tables or passages of the source.

Legend:
CIC-1 ion channel = target: T1, CIC-1 ion channel (Rattus norvegicus, UniProt P35524); test: Electrophysiological measurement (Gm, three micro-electrode technique) of compound inhibition of CIC-1 in rat soleus muscle fibres; format: cell-based; settings: whole rat soleus muscle, Gm at four increasing concentrations, approx. 30° C., mean ± spread
T1 construct: from tissue; host or cells: intact soleus muscle of 12-14 week old Wistar rats
T1 sequence (P35524 1-994): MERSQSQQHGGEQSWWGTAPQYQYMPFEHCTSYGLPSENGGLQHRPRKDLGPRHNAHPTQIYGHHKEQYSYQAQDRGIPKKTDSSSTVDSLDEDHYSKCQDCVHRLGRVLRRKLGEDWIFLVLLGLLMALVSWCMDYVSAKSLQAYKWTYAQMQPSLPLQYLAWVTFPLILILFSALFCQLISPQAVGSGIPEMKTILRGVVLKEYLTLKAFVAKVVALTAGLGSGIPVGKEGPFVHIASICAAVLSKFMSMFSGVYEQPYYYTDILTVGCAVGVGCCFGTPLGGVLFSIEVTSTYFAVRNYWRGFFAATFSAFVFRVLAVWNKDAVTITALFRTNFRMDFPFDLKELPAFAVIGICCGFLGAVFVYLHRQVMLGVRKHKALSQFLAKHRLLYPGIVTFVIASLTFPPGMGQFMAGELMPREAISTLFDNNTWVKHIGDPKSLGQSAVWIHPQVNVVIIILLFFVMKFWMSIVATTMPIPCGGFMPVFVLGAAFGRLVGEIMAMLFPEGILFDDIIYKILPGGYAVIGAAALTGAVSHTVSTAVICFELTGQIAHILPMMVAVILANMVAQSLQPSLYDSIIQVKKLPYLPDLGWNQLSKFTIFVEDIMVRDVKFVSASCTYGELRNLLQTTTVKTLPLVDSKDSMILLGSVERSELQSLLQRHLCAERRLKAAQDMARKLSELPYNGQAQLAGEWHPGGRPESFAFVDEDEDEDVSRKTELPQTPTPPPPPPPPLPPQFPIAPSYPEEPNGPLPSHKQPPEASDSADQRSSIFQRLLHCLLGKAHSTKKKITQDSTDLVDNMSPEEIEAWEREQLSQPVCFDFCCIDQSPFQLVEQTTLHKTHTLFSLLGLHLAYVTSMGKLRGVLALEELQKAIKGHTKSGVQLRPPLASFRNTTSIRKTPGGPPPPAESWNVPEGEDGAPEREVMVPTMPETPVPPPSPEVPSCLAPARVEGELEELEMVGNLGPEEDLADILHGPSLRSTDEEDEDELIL

[1] = system: isolated rat soleus muscles; test: Recovery of nerve-stimulated contractile force in isolated rat soleus nerve-muscle preparation exposed to tubocurarine; settings: 40 min, read-out: Point increase (%) of initial force that was restored
Method: Recovery of force is quantified as the percentage of the force prior to tubocurarine that is recovered by the compound.
The current disclosure relates to compounds that inhibit CIC-1 ion channels and increase muscle excitability and thereby improve muscle function in clinical conditions where muscle activation is failing. Such conditions result in loss of contractile function of skeletal muscle, weakness and excessive fatigue. In this series of experiments the compounds were tested for their ability to restore contractile function of isolated rat muscle when the neuromuscular transmission had been compromised akin to neuromuscular disorders.
Experimentally, soleus muscles from 4-5 wk old rats were isolated with the motor nerve remaining attached. The nerve-muscle preparations were mounted in experimental setups that enabled electrical stimulation of the motor nerve. Stimulation of the motor nerve led to activation of the muscle fibres and ensuing force production that was recorded.
After mounting the nerve-muscle preparation in the experimental setup, the contractile function of the muscle was initially assessed under the control conditions (FIG. 2A). […] The experimental condition mimics the failing neuromuscular transmission in a range of neuromuscular disorders. After addition of tubocurarine the contractile force declined over the next 90 mins to 10-50% of the control force. 50 μM of the test compound was then added and the contractile force recovered despite the continued presence of tubocurarine. To quantify the ability of the compound to restore force the percentage of the initial force that was restored was determined after 40 mins of compound exposure (FIG. 2B) and the point increase is reported in Table 3.

female Lewis rats = test: In situ isometric hindlimb force in anaesthetised rats under partial neuromuscular block by Cisatracurium; format: in vivo; settings: Rattus norvegicus, iv, read-out: increase in tetanic force
Method: Isometric hindlimb force was measured in 12-week old female Lewis rats in the presence and absence of compound.
Rats were placed under anesthesia with isoflurane (2-4%), intubated and subsequently connected to a micro ventilator (Microvent 1, Hallowell EMC, US). Two stimulation electrodes were inserted through the skin to stimulate the sciatic nerve. A small incision was made proximal to the ankle, to expose the Achilles tendon, which was tied by cotton string, and connected to a force transducer (Fort250, World Precision Instruments) with adjustable position (Vernier control). The Achilles tendon was then cut distal to the attached cotton string. The rat was placed on a heated pad, and to prevent movement artefacts from contraction of the ankle dorsiflexors, the foot was fixated by tape on a footplate.
Muscle contractile properties were assessed by applying an electrical current (under supramaximal voltage conditions) to the nerve and recording the force generated by the muscle. The muscle was stretched until maximal force was obtained, when assessed by 2 Hz stimulation. Isometric force was measured every 30 seconds at 12 Hz (Twitch), 10 pulses, and at every 5 minutes at 80 Hz (Tetanic) for 1 second (80 pulses). This stimulation pattern was employed throughout the experiment, expect in few cases where 80 Hz stimulation was replaced by 12 Hz (10 pulses). […] When the level of neuromuscular inhibition was stable, the test article was injected i.v. at the chosen concentration. The effect of test article was assessed on its ability to increase force generated from the stimulation pattern applied. The effect was assessed in the ability to increase force per se (tetanic, 80 Hz, stimulation), and the ratio between individual twitch peaks (12 Hz stimulation). The effect was monitored for at least 1 hour after injection of test article. In addition, the time from injection of test article to maximal effect on force (both twitch and tetanic) was noted and the time for the effect to disappear (return to baseline), if possible. When appropriate the infusion of neuromuscular blocking agent was ceased, with the stimulation pattern continued, and the return of force to control levels was monitored. Animals were sacrificed by cervical dislocation while still fully sedated.

[2] = system: isolated rat soleus muscles; test: Recovery of nerve-stimulated contractile force in isolated rat soleus nerve-muscle preparation exposed to tubocurarine; settings: FIG. 2: 50 μM compound added after 90 min incubation in tubocurarine, 3 muscles
[3] = 50 μM test compound, after 40 mins exposure, 115 nM tubocurarine for 90 mins, rat soleus

SMILES | EC50 (CIC-1 ion channel) | activation at 50 µM [1, 3] | activation at 50 µM ([1]; Rattus norvegicus) | further results
CCC(F)(F)c1cc(Br)ccc1O[C@@H](C)C(=O)O [Compound A-3, (2S)-2-[4-bromo-2-(1,1-difluoropropyl)phenoxy]propanoic acid] | 3.5 ± 0.4 µM | 54% | – | change in vivo at 17.5 mg/kg (female Lewis rats; 17.5 mg/kg i.v., 80 Hz stimulation, Cisatracurium block): 64%; average force (AUC) relative to initial force [2]: recovered
CCC(F)(F)c1cc(Cl)ccc1O[C@@H](CF)C(=O)O [Compound A-22, (2R)-2-[4-chloro-2-(1,1-difluoropropyl)phenoxy]-3-fluoropropanoic acid] | 3.3 ± 1.2 µM | – | 65% | change in vivo at 10.4 mg/kg (female Lewis rats): 57%
C#Cc1ccc(O[C@@H](C)C(=O)O)c(C(F)(F)CC)c1 [Compound A-23, (2S)-2-[2-(1,1-difluoropropyl)-4-ethynylphenoxy]propanoic acid] | 6.1 ± 1.1 µM | 37% | – | change in vivo at 18.8 mg/kg (female Lewis rats; 18.8 mg/kg i.v., 80 Hz stimulation, Cisatracurium block): 40%
C[C@H](Oc1cc(F)c(Br)cc1C(C)(F)F)C(=O)O [Compound A-29, (2S)-2-[4-bromo-2-(1,1-difluoroethyl)-5-fluorophenoxy]propanoic acid] | 5.5 ± 1.7 µM | – | 46% | change in vivo at 22.9 mg/kg (female Lewis rats): 76%
CCC(F)(F)c1cc(Br)c(F)cc1OCC(=O)O [Compound A-31, 2-[4-bromo-2-(1,1-difluoropropyl)-5-fluorophenoxy]acetic acid] | 5.5 ± 0.2 µM | 43% | – | change in vivo at 11.4 mg/kg (female Lewis rats; 11.4 mg/kg i.v., 80 Hz stimulation, Cisatracurium block): 14%
CCC(F)(F)c1cc(Cl)c(F)cc1O[C@@H](C)C(=O)O [Compound A-32, (2S)-2-[4-chloro-2-(1,1-difluoropropyl)-5-fluorophenoxy]propanoic acid] | 2.3 ± 0.6 µM | – | 41% | change in vivo at 11.2 mg/kg (female Lewis rats): 75%
